One data set concerns MOLM-13-RES cells. In words: MTS cell viability assay, MOLM-13-RES. The class given is cell-based, human. The following applies: ratio of in vitro viability potency, MOLM-13-RES vs MOLM-13.
For data set [1] the following is noted: single-agent phase I-II clinical trial in AML; cited from earlier work.
The conditions of data set [2]: in mice; cited from earlier work.
A short description of a further data set: in vivo. Set-up: species or system mice. The following applies: female, athymic CrTac:NCr-Fox1(nu), mouse, po, 160 mg/kg.

`CC(C)(C)c1cc(NC(=O)Nc2ccc(-c3cn4c(n3)sc3cc(OCCN5CCOCC5)ccc34)cc2)no1` [AC220]: the “relative resistance of MOLM-13-RES compared with parental MOLM-13 cells” value with MOLM-13-RES cells is given as “approximately 23 fold”.
With `CCN(CCCOc1ccc2c(Nc3cc(CC(=O)Nc4cccc(F)c4)n[nH]3)ncnc2c1)CCOP(=O)(O)O` [AZD1152], the response rate in data set [1] is on record as 25%.
Turning to `COc1cc2c(N3CCN(C(=O)Nc4ccc(OC(C)C)cc4)CC3)ncnc2cc1OCCCN1CCCCC1` [MLN518], the plasma protein binding in data set [2] is given as 80%. Further, in the data set “in vivo”, the concentration at 1 h after the last dose was roughly 200 nM and the concentration at 6 h after the last dose was roughly 40 nM.
`COc1cc(Nc2ncc3c(n2)-c2ccc(Cl)cc2C(c2c(F)cccc2OC)=NC3)ccc1C(=O)O` [MLN8237]: in data set [1], the response rate is 17%.
Regarding `CNC(=O)c1cc(Oc2ccc(NC(=O)Nc3ccc(Cl)c(C(F)(F)F)c3)cc2)ccn1` [Sorafenib], the “relative resistance of MOLM-13-RES compared with parental MOLM-13 cells” value with MOLM-13-RES cells was “approximately 60 fold”.
